Laboratory results reported in PubChem BioAssay AID2753 (Vanderbilt High Throughput Screening Facility, 2010).
pIC50: −log10 of the molar value. Activity calls are given as the source filed them. How the calls were made is not given here.

Biological target: ATP-sensitive inward rectifier potassium channel 1 (Homo sapiens) (UniProt P48048)
Assay: concentration-response of Kir1.1 channel inhibition – cell-based, thallium flux, HEK293, dose response (AID 2753)
Details: HEK293 ROMK thallium flux, fluorescence

ATP-sensitive inward rectifier potassium channel 1 (Homo sapiens), sequence (P48048 whole entry, looked up): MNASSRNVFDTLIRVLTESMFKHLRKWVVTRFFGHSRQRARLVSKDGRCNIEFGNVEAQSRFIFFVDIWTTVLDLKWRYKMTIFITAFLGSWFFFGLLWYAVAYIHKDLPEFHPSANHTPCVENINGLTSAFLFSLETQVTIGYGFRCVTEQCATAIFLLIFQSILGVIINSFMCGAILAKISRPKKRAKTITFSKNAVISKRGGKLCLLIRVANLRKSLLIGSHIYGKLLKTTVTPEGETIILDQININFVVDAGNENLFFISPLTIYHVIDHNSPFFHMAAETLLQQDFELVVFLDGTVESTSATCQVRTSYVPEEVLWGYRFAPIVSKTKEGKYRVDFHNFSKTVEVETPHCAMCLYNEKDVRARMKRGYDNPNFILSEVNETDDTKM

Compound | pIC50 | IC50
COc1ccccc1-n1c(SCC(=O)N2CCc3ccccc32)nc2c(c1=O)SCC2 | 5.19 | 
COCCNC(=O)/C(C#N)=C/c1c(F)cccc1Cl | 5.04 | 
Cc1c(N2C(=O)/C(=C\C3CC=CCC3)SC2=S)c(=O)n(-c2ccccc2)n1C (stereo unspecified) | 5.58 | 
O=[N+]([O-])c1ccc(S(=O)(=O)N2CCN(Cc3c[nH]c4ccccc34)CC2)cc1 |  | inactive
O=C(CCl)N(c1ccccc1)c1ccccc1 |  | inactive
Cn1nc(C(F)(F)F)c(C#N)c1N1CCN(c2ccccc2)CC1 | 4.82 | 
COc1cc(NC(=O)C2CCN(S(=O)(=O)c3ccc(Cl)cc3)CC2)ccc1-n1cnnn1 | 5.68 | 
COCCNC(=O)/C(C#N)=C/c1cccc(/C=C(\C#N)C(=O)NCCOC)c1 | 5.54 | 
Cc1cc(=O)oc2cc(NC(=S)NCc3ccccn3)ccc12 | 5.14 | 
Cc1cc(NC(=O)/C=C/C(=O)N(CC(=O)NC2CCCC2)c2cccc3ccccc23)no1 | 5.00 | 
CCCCC1(CCCC)C(=O)NC(=Nc2cccc(C)c2)NC1=O | 5.52 | 
CCC(CC)C(=O)Nc1c2cnn(-c3ccccc3)c2nc(=O)n1-c1ccccc1 | 4.85 | 
CCN(CC)S(=O)(=O)c1ccc(OC)c(NC(=O)CSc2cc(C)ccc2C)c1 | 4.89 | 
O=C(CCl)N(Cc1cccc([N+](=O)[O-])c1)c1cccc(Cl)c1 | 5.02 | 
CS(=O)(=O)N1CCc2cc(-c3csc(NC(=O)Cc4cccs4)n3)ccc21 |  | inactive
O=C(Nc1ccc2oc(=O)ccc2c1)c1cc([N+](=O)[O-])ccc1N1CCOCC1 | 5.47 | 
COC(=O)C1=C(C)N(C)C(C)=C(C(=O)OC)C1c1ccccc1C | 4.40 | 
N#C/C(=C\c1cccc([N+](=O)[O-])c1)C(=O)NCC1CCCO1 (stereo unspecified) |  | inactive
CC(=O)c1ccc(N/N=C(/C(N)=O)C2=NC(C)(C)Cc3ccccc32)cc1 | 4.57 | 
CCCN1C(=O)/C(=C/c2ccncc2)SC1=S | 5.11 | 
N#CC(C#N)=C1C=CC=CN1/C(=C\c1ccccc1Cl)C(=O)c1ccccc1 | 5.22 | 
COc1ccccc1/C=C(\C#N)C(=O)Nc1ccc(S(N)(=O)=O)cc1 |  | inactive
CCOC(=O)c1c(C)n(C)c2ccc(OC)c(NC(=O)CN3CCCCC3)c12 | 5.10 | 

Compound | pIC50 | IC50
N#Cc1nc(-c2cccs2)oc1NCc1ccccc1 | 5.15 | 
CC(CCc1ccccc1)NC(=O)CN1CCN(c2ccccc2)CC1 (stereo unspecified) |  | inactive
Cc1ccc2[nH]cc(C(=O)CCl)c2c1 | 5.38 | 
O=C1C=CC(=O)C(C2=C3C(=O)N(CCc4ccccc4)CC(=O)N3CCC2)=C1 | 4.89 | 
CNC(=O)c1nnsc1S(=O)(=O)c1ccc(Cl)cc1 | 5.13 | 
Cn1c(/C(C#N)=C/c2cccc(O)c2)nc2ccccc21 |  | inactive
CS(=O)(=O)n1nc(OC(=O)c2cc(Br)ccc2Cl)cc1N |  | inactive
O=C(Cn1nc(Cl)nc1Cl)c1cc2ccccc2oc1=O | 4.75 | 
CC(NC(=O)/C(C#N)=C/c1cccs1)c1ccccc1 (stereo unspecified) | 4.16 | 
N#C/C(=C\c1ccc(O)c(Br)c1)C(=O)NCc1ccccc1 |  | inactive
CNC(=O)c1nnsc1S(=O)c1ccc(Cl)cc1 (stereo unspecified) | 6.19 | 
CC(C)(C)c1ccc(N2C(=N)SCC2=O)cc1 | 5.49 | 
O=C1ON=C(c2cccc([N+](=O)[O-])c2)/C1=C/c1ccc(O)cc1 | 5.25 | 
Cc1cccc(C2c3[nH]c4ccccc4c3CCN2C(=O)c2nn(C)c(=O)c3ccccc23)n1 (stereo unspecified) |  | inactive
O=C1C=C(c2ccccc2)C(=O)N1Nc1ccccc1 | 5.56 | 
CN(C)CCNC(=O)/C(=C/c1ccc(-c2ccc(Cl)cc2)o1)NC(=O)c1ccccc1 |  | inactive
Cc1c(Nc2cc(Cl)c3nonc3c2[N+](=O)[O-])c(=O)n(-c2ccccc2)n1C | 4.28 | 
O=C(CN1CCCC1)Nc1c2c(nc3ccccc13)N(Cc1ccccc1)CC2 |  | inactive
CC1CCN(C(=O)CSCC(=O)Nc2nc(-c3cccs3)cs2)CC1 |  | inactive
O=C(NCc1cccnc1)/C(=C/c1ccc(-c2cccc(Cl)c2)o1)S(=O)(=O)c1ccccc1 |  | inactive
Cn1c(=O)c([N+](=O)[O-])c(Cl)c2ccccc21 | 5.26 | 
Cc1nn(-c2ccccc2)c(Cl)c1/C=C(\C#N)C(=O)NC(C)C | 4.34 | 
CC(C)c1[nH]nc2c1C(c1cccs1)C(C#N)=C(N)O2 (stereo unspecified) |  | inactive

Compound | pIC50 | IC50
Cc1ccc(C2=NOC(=O)/C2=C\c2ccc(C)o2)cc1 | 5.28 | 
CC1CCCCC1NC(=O)/C(C#N)=C/c1ccccc1F (stereo unspecified) | 5.32 | 
COc1cc(/C=C(\C#N)C(N)=O)ccc1OS(=O)(=O)c1ccc(C)cc1 | 4.51 | 
COc1cc2c(cc1OC)C(/C=C/c1ccco1)=NCC2 | 5.39 | 
CCOC(=O)C(=Cc1ccc(-n2cncn2)cc1)C(=O)OCC | 4.02 | 
N#CC1=C(N)N(c2ccccc2)C(c2ccccc2)C1(C#N)C#N (stereo unspecified) | 4.49 | 
CCOc1cc(C)c(Cl)cc1S(=O)(=O)NC1CC(C)(C)NC(C)(C)C1 | 4.08 | 
O=C(NC1CCCCCC1)c1cc(S(=O)(=O)N2CCCCC2)ccc1N1CCOCC1 | 5.26 | 
O=C1c2cccc3c([N+](=O)[O-])ccc(c23)C(=O)N1CC1CCCO1 (stereo unspecified) |  | inactive
CCN1C(=O)c2cccc3c(S(=O)(=O)Nc4ccccc4OC)ccc1c23 |  | inactive
O=C(/C=C\c1cccs1)c1c(O)ccc2ccc(=O)oc12 | 5.32 | 
CCCS(=O)(=O)c1nnnn1-c1cccc(OC)c1 |  | inactive
Cc1ccccc1N1C(=S)NC2c3ccccc3OC1(C)C2C(=O)N(C)C (stereo unspecified) | 7.94 | 
N#Cc1cccc(N=c2ssnc2Cl)c1 | 5.08 | 
COc1ccc2c(c1OC)C(=O)OC2Nc1nc(-c2cc3ccccc3oc2=O)cs1 (stereo unspecified) |  | inactive
CC(C)C(c1nnnn1Cc1ccccc1)N1CCN(Cc2ccc3c(c2)OCO3)CC1 (stereo unspecified) | 5.23 | 
COc1cc(/C=C(\C#N)C(=O)Nc2ccccc2C(=O)O)cc(Cl)c1OC | 5.48 | 
Cc1ccc(/C=C(\C#N)C(=O)NCCN2CCOCC2)cc1 |  | inactive
COc1cc(/C=C(/C(=O)c2cccs2)c2nc3ccccc3[nH]2)ccc1O |  | inactive
Cc1ccc(N2C(=O)NC(=O)/C(=C\C=C\c3ccco3)C2=O)cc1C | 5.63 | 
CCCNC(=O)c1nnsc1S(=O)c1ccc(Cl)cc1 (stereo unspecified) | 5.55 | 
N#C/C(=C\c1cccc([N+](=O)[O-])c1)c1nnc2n1CCCCC2 |  | inactive
O=c1c2ccccc2nc(/C=C/c2ccc([N+](=O)[O-])o2)n1CCCO |  | inactive

Compound | pIC50 | IC50
CC(/C=C1\SC(=S)N(CCCC(=O)Nc2ccc(C(=O)O)cc2)C1=O)=C\c1ccccc1 | 3.92 | 
Cc1ccc(C)n1-c1ccc(-n2cnnn2)cc1 | 4.98 | 
COCCCNc1ccc([N+](=O)[O-])cc1C(=O)Nc1cccc(C)n1 | 4.86 | 
CC1CCCCC1NC(=O)CN1C(=O)CSc2cc(S(=O)(=O)N3CCCCCC3)ccc21 (stereo unspecified) | 4.26 | 
CC(C(=O)c1ccc(-c2ccccc2)cc1)[n+]1cccc(NC(=O)c2ccccc2)c1 (stereo unspecified) | 4.56 | 
O=C(O)c1ccc(Cn2cnc3scc(-c4ccccc4)c3c2=O)cc1 | 5.01 | 
CCCC(=O)OCCNc1cc(Sc2nccn2C)c2nonc2c1[N+](=O)[O-] | 3.81 | 
CN(CCCC(=O)Nc1ccncc1)S(=O)(=O)c1ccc(Cl)cc1 |  | inactive
CC(=O)c1c(C)nc(-c2cccc([N+](=O)[O-])c2)n1O |  | inactive
CSC1=C(C#N)C(=O)NC(c2ccccc2O)S1 (stereo unspecified) | 5.12 | 
Cc1cc(Cl)c(S(=O)(=O)Nc2ccc3c(c2)OCCO3)cc1OCC(=O)NC1CCCCC1 | 5.45 | 
O=C(c1ccc([N+](=O)[O-])cc1)N(Cc1ccc(Br)cc1)N1C(=O)CCCC1=O | 6.50 | 
N#C/C(=C\C1CC=CCC1)c1nc2ccccc2[nH]1 (stereo unspecified) |  | inactive
COC(=O)N/N=C/c1ccc(-c2cc(Cl)ccc2Cl)o1 | 5.24 | 
CC1=NOC(=O)/C1=C\c1ccc(-c2ccccc2Br)o1 |  | inactive
CCCCNC(=O)/C(C#N)=C/c1ccc(F)cc1F | 5.41 | 
O=[N+]([O-])c1ccc(N2CCCNCC2)c2ncccc12 | 4.97 | 
N#C/C(=C\c1cccc(Oc2ccccc2)c1)C(=O)N1CCOCC1 | 5.18 | 
C[n+]1c2n(c3ccccc31)N=C(c1cc(C(C)(C)C)c(O)c(C(C)(C)C)c1)CS2 | 4.14 | 
CN(C)c1cc(O)c(C(=S)Nc2ccccc2)c(N(C)C)c1 | 4.12 | 
COC(=O)c1cc([N+](=O)[O-])c(-n2cncn2)c([N+](=O)[O-])c1 | 5.30 | 
CN(C)c1nc(C=C(C#N)C#N)c(Cl)n1-c1ccc(F)cc1 | 5.53 | 
Cc1nn(CCCC(=O)N2CCN(c3ccc(F)cc3)CC2)c(C)c1[N+](=O)[O-] |  | inactive

Compound | pIC50 | IC50
CCOC(=O)CS(=O)(=O)c1nc(-c2ccccc2)cc(C(F)(F)F)n1 | 4.91 | 
O=C1c2[nH]nc(-c3ccccc3O)c2C(c2cccc(Cl)c2)N1CC1CCCO1 (stereo unspecified) |  | inactive
Cc1ccc(Oc2c(C(N)=O)cc([N+](=O)[O-])cc2[N+](=O)[O-])cc1 | 4.29 | 
COc1cccc(C(c2nnnn2Cc2ccccc2)N2CCN(C3CCCC3)CC2)c1OC (stereo unspecified) | 4.45 | 
Cc1cc(C)n2nc(/C(C#N)=C/c3ccccn3)c(C#N)c2n1 | 4.05 | 
O=C1CC(N2CCN(Cc3ccc4c(c3)OCO4)CC2)C(=O)N1c1cccc2ccccc12 (stereo unspecified) |  | inactive
O=C(c1nnsc1S(=O)c1ccc(Cl)cc1)N1CCOCC1 (stereo unspecified) | 5.66 | 
CCCC(C(=O)NCc1ccco1)N(C(=O)CNS(=O)(=O)c1ccccc1)c1ccccc1OC (stereo unspecified) |  | inactive
COc1ccc(CNCC(O)COc2ccc(C)cc2[N+](=O)[O-])cc1 (stereo unspecified) |  | inactive
N#Cc1nc(N2CCCC2)nc(N2CCCC2)n1 | 4.38 | 
COc1ccc(C2(O)CCN(CCCCOc3ccccc3)CC2)cc1 | 4.97 | 
COc1ccc(-n2nc(C#N)c(Cl)cc2=O)cc1 | 4.99 | 
COC(=O)/C=C1\SC(=NC(=O)c2cccc(Cl)c2)NC1=O |  | inactive
CCCn1c(=S)[nH]c2cc(C(=O)N3CCCC(C(=O)OCC)C3)ccc2c1=O (stereo unspecified) |  | inactive
Cc1cc(N2CCOCC2)ccc1/C=C\[N+](=O)[O-] | 5.47 | 
Cc1ccccc1-n1sc2cc(F)ccc2c1=O |  | inactive
CCc1cccc(NC(=O)CSC2=NS(=O)(=O)c3ccccc32)c1 |  | inactive
N#C/C(=C\c1ccc(Cl)c([N+](=O)[O-])c1)c1ccccn1 | 5.44 | 
COc1ccc(NC(=O)/C(C#N)=C/c2ccc(Sc3nncn3C)c([N+](=O)[O-])c2)cc1 | 5.37 | 
